Measured values from the NIST ThermoML archive (doi:10.1016/j.fluid.2012.07.032).
± gives the expanded uncertainty stated by the source.

Assays:
[1] = refractive index (Na D-line) (dimensionless); settings: 101.33 kPa, Liquid, Standard Abbe refractometry
[2] = 101.33 kPa, Liquid, Vibrating tube method

| SMILES | refractive index ([1]; 288.2 K) | refractive index ([1]; 303.2 K) | refractive index ([1]; 318.2 K) | mass density ([2]; 288.2 K) [kg/m3] | mass density ([2]; 303.2 K) [kg/m3] | mass density ([2]; 318.2 K) [kg/m3] |
| --- | --- | --- | --- | --- | --- | --- |
| O=Cc1ccco1 [2-furaldehyde] | 1.528 ± 0.0004 | 1.5206 ± 0.0004 | 1.5133 ± 0.0004 | 1165.24 ± 0.37 | 1149.77 ± 0.35 | 1133.83 ± 0.34 |
| CCCCO [butan-1-ol] | 1.4013 ± 0.0004 | 1.3952 ± 0.0004 | 1.3892 ± 0.0004 | 813.82 ± 0.14 | 802.407 ± 0.14 | 790.724 ± 0.15 |

Next, values leading:

| refractive index ([1]; 288.2 K) | refractive index ([1]; 303.2 K) | refractive index ([1]; 318.2 K) | mass density ([2]; 288.2 K) [kg/m3] | mass density ([2]; 303.2 K) [kg/m3] | mass density ([2]; 318.2 K) [kg/m3] | SMILES |
| --- | --- | --- | --- | --- | --- | --- |
| 1.3866 ± 0.0004 | 1.3792 ± 0.0004 | 1.3717 ± 0.0004 | 894.325 ± 0.082 | 877.529 ± 0.089 | 860.512 ± 0.095 | CCCOC(C)=O [propyl ethanoate] |
| 1.3334 ± 0.0004 | 1.3319 ± 0.0004 | 1.3298 ± 0.0004 | – | – | – | O [water] |
| 1.3749 ± 0.0004 | 1.3672 ± 0.0004 | 1.3594 ± 0.0004 | 906.89 ± 0.11 | 888.196 ± 0.12 | 869.522 ± 0.12 | CCOC(C)=O [ethyl acetate] |
